Source: publication PMC11879040, “Advancing systemic toxicity risk assessment: Evaluation of a NAM-based toolbox approach” (Toxicological Sciences, 2024)
Read-outs that look alike come from different tables or passages of the source.

Tests used:
[1] = molecular target: T1, Pregnane X receptor PXR, NR1I2 (h) (Homo sapiens, UniProt O75469)
T1 sequence (O75469 1-434): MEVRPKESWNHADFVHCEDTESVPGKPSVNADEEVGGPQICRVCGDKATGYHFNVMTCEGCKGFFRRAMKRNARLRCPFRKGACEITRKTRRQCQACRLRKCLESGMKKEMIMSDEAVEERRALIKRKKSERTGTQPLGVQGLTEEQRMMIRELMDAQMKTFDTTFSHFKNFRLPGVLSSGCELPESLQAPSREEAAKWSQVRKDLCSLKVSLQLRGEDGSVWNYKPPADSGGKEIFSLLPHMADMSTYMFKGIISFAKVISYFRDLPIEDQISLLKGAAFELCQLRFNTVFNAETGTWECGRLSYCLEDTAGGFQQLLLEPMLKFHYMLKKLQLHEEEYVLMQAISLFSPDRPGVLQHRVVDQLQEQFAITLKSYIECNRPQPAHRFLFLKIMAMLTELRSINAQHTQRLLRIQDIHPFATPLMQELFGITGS

[2] = molecular target: T2, Constitutive androstane receptor CAR, NR1I3 (h) (Homo sapiens, UniProt Q14994); type: biochemical
T2 sequence (Q14994 1-352): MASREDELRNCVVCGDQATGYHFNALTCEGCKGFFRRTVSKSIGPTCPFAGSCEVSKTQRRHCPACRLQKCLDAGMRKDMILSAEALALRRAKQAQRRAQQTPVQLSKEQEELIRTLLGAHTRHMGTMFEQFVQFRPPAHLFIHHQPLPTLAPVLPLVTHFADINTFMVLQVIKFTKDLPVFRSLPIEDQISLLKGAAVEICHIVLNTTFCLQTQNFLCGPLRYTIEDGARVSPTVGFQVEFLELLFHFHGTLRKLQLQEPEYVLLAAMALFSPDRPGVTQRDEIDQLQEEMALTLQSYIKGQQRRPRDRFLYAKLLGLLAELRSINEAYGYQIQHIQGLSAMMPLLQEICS

[3] = molecular target: Potassium voltage-gated channel subfamily H member 2 hERG, KCNH2 (h) (Homo sapiens, UniProt Q12809)
[4] = test system: Gamma-aminobutyric acid receptor subunit alpha-1 BZD site, GABRA1A (r); type: binding, rat; settings: IPP screening at 100 uM; control diazepam
[5] = test system: Thyroid hormone receptor alpha, THRA (h); assay: IPP THRA coactivator recruitment (agonist); type: biochemical, human; settings: 100 uM; agonist; T3; * denotes assay interference (2-Amino-6-chloro-4-nitrophenol, HC Red 3)
mouse = settings: ref SCCS; cited from earlier work
HepG2 cells [6] = assay: Cell stress panel (CSP), 24 h, 8 concentrations, BIFROST global PoD; type: cell-based; settings: HepG2; cell stress panel PoD
Method: Compounds were tested using the previously developed cell stress panel ([Hatherell et al. 2020]) and the expanded biomarker panel outlined in Middleton et al. HepG2 cells were treated with all compounds for 24 h across 8 concentrations prior to biomarker analysis. The same plate layout and number of replicates (3 biological and 2 technical) were used as previously for each assay within the panel.

[7] = test system: Sodium channel protein type 5 subunit alpha (site 2), SCN5A (r); type: binding, rat; settings: IPP screening at 100 uM; control veratridine
[8] = human
[9] = test system: Glutamate receptor ionotropic NMDA 1 non-selective, GRIN1 (r); settings: IPP screening at 100 uM; control CGS 19755
[10] = test system: Potassium Voltage-Gated Channel Kv non-selective, KCNQ1 (r); assay: IPP KCNQ1 binding (antagonist radioligand); parameters: species or system rat
[11] = molecular target: T3, Adenosine receptor A2a, ADORA2A (h) (Homo sapiens, UniProt P29274); assay: IPP ADORA2A binding (agonist radioligand); settings: IPP screening at 100 uM; control NECA
T3 construct: purchased Eurofins Cerep (SafetyScreen44-based IPP panel)

Tubulin (r) = assay: IPP Tubulin binding; parameters: species or system rat; settings: 100 uM; ligand/control Colchicine
[12] = human, cited from earlier work
MCF7 cells = assay: High-throughput transcriptomics (HTTr, TempO-Seq), MCF7, 24 h; type: cell-based, human; settings: MCF-7
Method: (§1) HepG2, HepaRG, and MCF7 cells were treated with each compound for 24 h across a dose range of 7 concentrations and lysed using TempO-Seq lysis buffer (BioSpyder Technologies, proprietary kit, see [Middleton et al. 2022] for method details). Sequencing was performed using TempO-Seq (BioClavis) version 2 of the human whole transcriptome panel and analyzed as described previously in Middleton et al.

HepG2 cells [13] = assay: High-throughput transcriptomics (HTTr, TempO-Seq), HepG2, 24 h; type: cell-based, human; settings: HepG2
Method: as §1

[14] = PBK input, level L2; ref [10]; cited from earlier work
[15] = molecular target: vitamin K epoxide reductase enzyme (VKORC1); settings: ref Bevans et al. 2013, cited from earlier work
[16] = human; remark: listed apart in the source
HepaRG cells = assay: High-throughput transcriptomics (HTTr, TempO-Seq), HepaRG, 24 h; type: cell-based, human
Method: as §1

[17] = PBK model plasma Cmax estimate (Gastroplus 9.8; levels L1, L2, L3); parameters: species or system human; settings: therapeutic uses
[18] = molecular target: Voltage-dependent L-type Ca2+ channel (dihydropyridine site), CACNA1C (r) (Rattus norvegicus, UniProt P22002); type: binding; settings: IPP screening at 100 uM; control nitrendipine
[19] = PO 15 mg, tablet, 8 male, Fasted, calibration, ref Stirling Y, et al. British Journal of Haematology (1982) 51: 37-46

Chain of Potassium voltage-gated channel subfamily H member 2 hERG, KCNH2 (h) (Q12809 whole entry): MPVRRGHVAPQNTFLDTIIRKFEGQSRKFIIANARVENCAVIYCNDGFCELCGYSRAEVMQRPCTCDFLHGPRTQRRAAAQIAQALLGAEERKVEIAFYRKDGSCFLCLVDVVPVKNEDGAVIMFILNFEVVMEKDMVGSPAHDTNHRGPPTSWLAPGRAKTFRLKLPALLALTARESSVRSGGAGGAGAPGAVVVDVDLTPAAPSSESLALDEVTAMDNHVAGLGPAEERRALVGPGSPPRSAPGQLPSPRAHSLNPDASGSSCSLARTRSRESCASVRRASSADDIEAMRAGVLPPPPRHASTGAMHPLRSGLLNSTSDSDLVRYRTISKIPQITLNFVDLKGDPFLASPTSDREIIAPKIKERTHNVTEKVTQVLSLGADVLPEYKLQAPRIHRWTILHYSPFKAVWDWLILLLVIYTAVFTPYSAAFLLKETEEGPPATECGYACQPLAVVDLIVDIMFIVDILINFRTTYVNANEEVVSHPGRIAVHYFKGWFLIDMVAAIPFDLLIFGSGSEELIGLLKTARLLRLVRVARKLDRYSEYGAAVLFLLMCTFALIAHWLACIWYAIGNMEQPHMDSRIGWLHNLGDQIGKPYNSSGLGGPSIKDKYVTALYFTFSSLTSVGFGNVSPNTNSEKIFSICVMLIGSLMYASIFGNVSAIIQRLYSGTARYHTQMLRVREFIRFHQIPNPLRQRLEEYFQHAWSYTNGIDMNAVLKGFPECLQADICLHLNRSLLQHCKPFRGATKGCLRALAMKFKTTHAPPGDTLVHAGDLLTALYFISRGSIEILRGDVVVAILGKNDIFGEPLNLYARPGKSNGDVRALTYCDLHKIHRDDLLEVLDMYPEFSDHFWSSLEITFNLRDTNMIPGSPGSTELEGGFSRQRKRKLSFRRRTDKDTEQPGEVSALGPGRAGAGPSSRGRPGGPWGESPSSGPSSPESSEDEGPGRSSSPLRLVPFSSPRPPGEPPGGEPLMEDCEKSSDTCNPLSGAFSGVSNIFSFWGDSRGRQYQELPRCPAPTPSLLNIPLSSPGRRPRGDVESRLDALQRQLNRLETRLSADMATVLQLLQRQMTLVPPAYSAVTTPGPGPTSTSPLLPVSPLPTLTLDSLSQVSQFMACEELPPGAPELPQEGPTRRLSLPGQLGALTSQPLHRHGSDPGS
T3 sequence (P29274 whole entry): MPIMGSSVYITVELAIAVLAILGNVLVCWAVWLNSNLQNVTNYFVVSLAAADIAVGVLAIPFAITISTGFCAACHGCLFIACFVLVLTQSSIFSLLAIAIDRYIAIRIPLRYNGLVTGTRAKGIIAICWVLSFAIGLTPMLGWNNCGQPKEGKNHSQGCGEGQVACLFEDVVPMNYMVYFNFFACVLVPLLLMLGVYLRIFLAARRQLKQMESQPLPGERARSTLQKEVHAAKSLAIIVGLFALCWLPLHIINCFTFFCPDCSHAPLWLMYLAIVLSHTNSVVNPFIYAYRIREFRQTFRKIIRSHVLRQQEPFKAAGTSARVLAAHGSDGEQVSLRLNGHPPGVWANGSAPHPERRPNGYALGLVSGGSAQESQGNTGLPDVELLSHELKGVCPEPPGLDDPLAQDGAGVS
Chain of Voltage-dependent L-type Ca2+ channel (dihydropyridine site), CACNA1C (r) (P22002 whole entry): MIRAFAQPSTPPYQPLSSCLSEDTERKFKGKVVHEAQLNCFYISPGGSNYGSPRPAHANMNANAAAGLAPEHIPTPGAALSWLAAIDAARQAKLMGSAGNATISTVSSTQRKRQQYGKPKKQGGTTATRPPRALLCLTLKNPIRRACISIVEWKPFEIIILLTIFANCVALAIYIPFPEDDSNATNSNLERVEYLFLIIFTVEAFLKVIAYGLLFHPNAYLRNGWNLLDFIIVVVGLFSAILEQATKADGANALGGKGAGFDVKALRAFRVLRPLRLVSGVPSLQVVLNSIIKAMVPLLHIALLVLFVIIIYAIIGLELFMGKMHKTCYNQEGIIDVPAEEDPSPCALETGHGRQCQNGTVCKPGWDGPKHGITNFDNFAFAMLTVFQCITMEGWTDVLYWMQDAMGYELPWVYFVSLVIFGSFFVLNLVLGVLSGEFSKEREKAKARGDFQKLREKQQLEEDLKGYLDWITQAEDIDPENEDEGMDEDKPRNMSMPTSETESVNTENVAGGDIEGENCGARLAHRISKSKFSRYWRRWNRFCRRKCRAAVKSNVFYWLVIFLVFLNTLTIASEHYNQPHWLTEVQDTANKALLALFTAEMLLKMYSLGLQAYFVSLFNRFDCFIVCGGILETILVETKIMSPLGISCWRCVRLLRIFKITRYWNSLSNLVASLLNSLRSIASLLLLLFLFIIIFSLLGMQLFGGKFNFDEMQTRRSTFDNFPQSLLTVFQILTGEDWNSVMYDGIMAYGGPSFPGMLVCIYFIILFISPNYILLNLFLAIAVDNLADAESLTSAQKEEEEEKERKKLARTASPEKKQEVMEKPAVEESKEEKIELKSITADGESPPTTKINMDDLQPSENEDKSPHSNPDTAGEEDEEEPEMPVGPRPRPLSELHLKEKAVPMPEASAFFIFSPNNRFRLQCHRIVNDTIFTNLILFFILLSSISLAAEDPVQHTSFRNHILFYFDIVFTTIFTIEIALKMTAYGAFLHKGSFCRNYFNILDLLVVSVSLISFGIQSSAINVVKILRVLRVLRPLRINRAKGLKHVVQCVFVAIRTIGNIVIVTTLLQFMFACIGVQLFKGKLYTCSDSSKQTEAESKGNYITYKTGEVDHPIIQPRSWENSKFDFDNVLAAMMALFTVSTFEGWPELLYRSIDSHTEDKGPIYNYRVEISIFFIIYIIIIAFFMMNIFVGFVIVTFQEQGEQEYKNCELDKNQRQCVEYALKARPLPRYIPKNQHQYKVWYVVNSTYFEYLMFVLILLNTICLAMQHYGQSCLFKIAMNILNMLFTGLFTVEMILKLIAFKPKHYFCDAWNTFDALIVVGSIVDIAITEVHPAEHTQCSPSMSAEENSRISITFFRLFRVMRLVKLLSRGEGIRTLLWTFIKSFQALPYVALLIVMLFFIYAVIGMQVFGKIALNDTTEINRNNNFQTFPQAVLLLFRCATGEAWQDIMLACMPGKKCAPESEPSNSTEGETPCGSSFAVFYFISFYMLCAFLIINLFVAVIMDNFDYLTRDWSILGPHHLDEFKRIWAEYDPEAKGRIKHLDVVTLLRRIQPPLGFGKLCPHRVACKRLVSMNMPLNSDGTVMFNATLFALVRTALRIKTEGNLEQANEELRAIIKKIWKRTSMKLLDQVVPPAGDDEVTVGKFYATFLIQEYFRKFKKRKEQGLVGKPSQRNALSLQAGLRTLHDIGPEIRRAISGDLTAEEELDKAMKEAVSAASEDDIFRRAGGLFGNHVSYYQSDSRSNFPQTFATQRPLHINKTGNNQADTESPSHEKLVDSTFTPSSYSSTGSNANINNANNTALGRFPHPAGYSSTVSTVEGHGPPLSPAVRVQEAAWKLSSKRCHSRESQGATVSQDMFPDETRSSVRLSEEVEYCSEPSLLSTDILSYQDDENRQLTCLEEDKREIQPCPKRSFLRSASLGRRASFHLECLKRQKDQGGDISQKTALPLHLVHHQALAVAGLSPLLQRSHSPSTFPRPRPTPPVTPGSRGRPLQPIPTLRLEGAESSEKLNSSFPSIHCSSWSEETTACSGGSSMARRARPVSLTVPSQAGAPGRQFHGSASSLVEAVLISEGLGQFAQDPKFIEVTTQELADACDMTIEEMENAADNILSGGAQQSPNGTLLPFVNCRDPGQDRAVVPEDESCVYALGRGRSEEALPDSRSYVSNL

With `Nc1ccc(NCCO)c([N+](=O)[O-])c1` [HC Red 3, 2-(4-Amino-2-nitroanilino)ethan-1-ol] the “IPP Dose Response PoD: PXR antagonist” value [1] was “[4.11, 6.71]”, the “IPP Dose Response PoD: CAR antagonist effect” value [2] was “[29.7,46.9]” and the “IPP screening %, Specific binding” value ([3]; 100 uM, [3H] Dofetilide, control Terfenadine) was 16.3%. For the same molecule, the Specific binding [4] was 16.3%, the “IPP screening %, Coactivator recruitment” value [5] was 628.0* % and the “NOAEL before adjustment for 5 day dosing regimen” value (mouse) was “NOAEL of 125 mkd adjusted for 5 day dosing regimen. 90 mkd used as critical PoD by SCCS”. The “pod_cell_stress PoD” value (HepG2 cells [6]) was 1.583 µM, the Specific binding [7] was 38.7% and the risk [8] was 0. For the same molecule, the Specific binding [9] was 0.4%, the Specific binding ([10]; IPP screening at 100 uM, control α-dendrotoxin) was -2.7% and the Specific binding [11] was 18.0%. For the same molecule, the “IPP screening %, Specific binding” value (Tubulin (r)) was -13.0%.
In the case of `CC(=O)CC(c1ccccc1)c1c([O-])c2ccccc2oc1=O.[Na+]` (stereo not shown) [Warfarin, Sodium 2-oxo-3-(3-oxo-1-phenylbutyl)-2H-1-benzopyran-4-olate], the “Reported AUC0-t” value [12, 19] is given as 54300 ng·h/mL, the Reported cmax [12, 19] is given as 1.305 µg/mL and the Reported tmax [12, 19] is given as 1 h. The Cmax ([12]; read-out: typical Cmax reported in the literature, ref literature, not specified) was 0.6 to 6 µM, the “pod_httr_bifrost PoD” value (MCF7 cells; HTTr BIFROST PoD) was 19.7041 µM and the “podl_path_minbmd PoD” value (MCF7 cells; HTTr minimum pathway BMD(L)) was 167.012 µM. For the same molecule, the “IPP screening %, Specific binding” value ([3]; human) was 10.1%, the Specific binding [4] was 0.6% and the “IPP screening %, Coactivator recruitment” value [5] was -2.0%. For the same molecule, the “pod_httr_bifrost PoD” value (HepG2 cells [13]; HTTr BIFROST PoD) was 14.2833 µM, the “podl_path_minbmd PoD” value (HepG2 cells [13]; HTTr minimum pathway BMD(L)) was 164.109 µM and the Fup [14] was 2%. For the same molecule, the “pod_cell_stress PoD” value (HepG2 cells [6]) was 13.7726 µM, the Specific binding [7] was 0.7% and the IC50 ([15]; read-out: IC50 on the VKORC1 enzyme, lower end of literature range) was 0.0247 µM. The IC50 ([15]; read-out: IC50 on the VKORC1 enzyme, upper end of literature range) was 4 µM, the Specific binding [9] was 7.9% and the “Intrinsic Liver Clearance” value [16] was 14.41 L/h. The Specific binding [10] was 7.0%, the “HepaRG minimum pathway BMDL” value (HepaRG cells; BMDExpress2, highest of the chemical's PoDs) was 259 µM and the “pod_httr_bifrost PoD” value (HepaRG cells; HepaRG, HTTr BIFROST PoD) was 13.5544 µM. For the same molecule, the “podl_path_minbmd PoD” value (HepaRG cells; HepaRG, HTTr minimum pathway BMD(L)) was 258.74 µM, the “HepaRG BIFROST global PoD” value (HepaRG cells; lowest of the chemical's PoDs) was 13.6 µM and the Specific binding [11] was -14.2%. The “IPP screening %, Specific binding” value (Tubulin (r)) was 3.0%, the “underprediction of the L3 result at L2 (Cmax)” value [17] was no less than 5 fold and the Specific binding [18] was -1.9%.
